Laboratory results: patent US11958842B2, “Substituted phenazines and methods of treating cancer and bacterial diseases” (Adjutec Pharma AS, priority 2016, dated 2024)
Where two headings read alike, the source gives them in different places.

Columns and labels:
Assay type in all cases: cell-based
Molm13 cells = assay: Anti-AML activity, WST-1 viability (Example 72); details: Homo sapiens
Experimental: Dry powder of analogs were dissolved in DMSO. IPC-18 rat AML cells (Lacaze, N. et al. Leuk. Res. 1983, 7, 145.) were cultured in DMEM medium (Sigma-Aldrich, St. Louis, Mo., USA) supplemented with 10% horse serum (Invitrogen, Carlsbad, Calif., USA), and antibiotics (50 U/mL of penicillin and 0.05 mg/mL streptomycin). Molm13 (Matsuo, Y. et al. Leukemia 1997, 11, 1469.) cells were cultured in RPMI supplemented with antibiotics (50 U/mL of penicillin and 0.05 mg/mL streptomycin) and 10% fetal bovine serum (FBS, Invitrogen, Carlsbad, Calif.) and kept in exponential growth before the experiments. Dilution series of iodinin analogs were added to medium and cell suspension added to reach a final cell concentration of 150 000 cells/ml in 0.1 mL in a 96 well tissue culture plate. […] The cells were incubated with the iodinin analogs for 22 h before WST-1 was added according to the manufacturers protocol, and the cells incubated further in 2 h. Mitochondrial conversion of WST-1 to its colored metabolite was measured by a plate reader at 450 nm, with 620 nm as the reference wavelength. The cells were next fixed by adding 4% buffered formaldehyde (PBS, pH 7.4, supplemented with 0.01 mg/mL Hoechst 33342 for nuclear visualization) to the cell suspension at 1:1 (v/v) ratio (final concentration of formaldehyde:[…]). The cells' nuclear and surface morphology were examined microscopically and results compared with the WST-1 viability assay. The results given in Table I are based on WST-1 data.

[1] = test system: human acute myeloid leukemia cell line MOLM-13; assay: Cytotoxicity, WST-1 and nuclear morphology (Example 73)
Experimental: (§1) All cell culturing media and serum were from Sigma-Aldrich (St. Louis, Mo., USA). Product Nos. are given in parentheses. The human acute myeloid leukemia cell line MOLM-13 was cultured in RPMI medium (R5886) enriched with […] (F7524) and 0.2 mM L-glutamine (G7513). The normal rat kidney epithelial (NRK) and the rat cardiomyoblast (H9c2) cells were cultured in DMEM medium (D6429) enriched with 10% fetal bovine serum (F7524). All cell lines were additionally supplemented with 100 IU/mL penicillin and […] (P0781). The cells were cultured in a humidified atmosphere either under 2% or 20% O2 at 37° C.
(§2) All analogues were dissolved in DMSO (D5879, Sigma-Aldrich) at concentrations between 2.5 and 20 mM before testing. For cytotoxic testing, the MOLM-13 cells were seeded as 20,000 cells/well, while NRK and H9c2 cells were seeded as 5,000 cells/well in 96-well Microplates (#167008, Thermo Scientific™ Nunc™ MicroWell™) with 100 μL medium/well. The cells were exposed to various concentrations of iodinin or its analogues for 24 hrs before the cell proliferation reagent WST-1 was used to assess the viability, in accordance with the manufacturer's instructions (11644807001, Roche Diagnostics, Sigma-Aldrich). The cells were next fixed in 2% buffered formaldehyde (pH 7.4) with the DNA-specific dye Hoechst 33342 (Polysciences Inc.) and assessed for cell death by UV-microscopy based on nuclear morphology. The highest concentration of analogue corresponded to 1% of DMSO, which alone gave less than 7% cell death as judged by nuclear morphology.
(§3) EC50 values were determined by analyses of WST-1 signal results as well as microscopic evaluation of cell death by four-parameter regression analyses using the SigmaPlot software (Systat Software inc. San Jose, Calif.):
(§4) [formula] where Y is the response (WST-1 signal or percent apoptosis), min and max are minimum and maximum response, X is concentration of analogue, EC50 equals the point of inflection, i.e. the point that gives half of maximum response, and h is the Hill's slope of the curve. The two methods gave consistent response curves for each analogue. In the case of Tirapazamine, where its colour interfered with the WST-1 signal, only microscopic evaluation of Hoechst stained cells was used in order to calculate its EC50 values.

[2] = test system: normal rat kidney epithelial (NRK) cells; assay: as above
Experimental: as §1, §2, §3, §4

[3] = test system: rat cardiomyoblast (H9c2) cells; assay: as above; details: read-out: EC50 (μM) H9c2 19% O2
Experimental: as §1, §2, §3, §4

[4] = Molm 13 cells, 2% O2, 24 h of incubation, WST-1, read-out: Molm 13 IC50 2% O2
[5] = Molm 13 cells, 20% O2, 24 h of incubation, WST-1, read-out: Molm 13 IC50 20% O2
[6] = Homo sapiens, MOLM-13, 2% O2, 24 hours of incubation, read-out: EC50 (μM) MOLM-13 2% O2
[7] = Homo sapiens, MOLM-13, 19% O2, 24 hours of incubation, read-out: EC50 (μM) MOLM-13 19% O2
[8] = Rattus norvegicus, 2% O2, 24 hours of incubation, read-out: EC50 (μM) NRK 2% O2
[9] = Rattus norvegicus, 19% O2, 24 hours of incubation, read-out: EC50 (μM) NRK 19% O2
[10] = Rattus norvegicus, H9c2, 19% O2, 24 hours of incubation
[11] = Homo sapiens, MOLM-13, 24 h, read-out: EC50 (μM) MOLM-13 2% O2
[12] = Homo sapiens, MOLM-13, 24 h, read-out: EC50 (μM) MOLM-13 19% O2
[13] = Rattus norvegicus, 24 h, read-out: EC50 (μM) NRK 2% O2, NRK, 2% O2, 24 hours of incubation
[14] = Rattus norvegicus, 24 h, read-out: EC50 (μM) NRK 19% O2, NRK, 19% O2, 24 hours of incubation
[15] = MOLM-13, 2% O2, 24 hours of incubation, read-out: EC50 (μM) MOLM-13 2% O2
[16] = MOLM-13, 19% O2, 24 hours of incubation, read-out: EC50 (μM) MOLM-13 19% O2
[17] = H9c2, 19% O2, 24 hours of incubation

| Compound | EC50 [1, 6] [µM] | EC50 [1, 7] [µM] | EC50 [2, 8] [µM] | EC50 [2, 9] [µM] | EC50 [3, 10] [µM] | further results |
| --- | --- | --- | --- | --- | --- | --- |
| COc1cccc2nc3c(OC)cccc3nc12 [Example 1a, 1,6-dimethoxyphenazine] | 84 ± 6 | 72 ± 14 |  |  |  | IC50 (Molm13 cells; [4]): > 10 µM; IC50 (Molm13 cells; [5]): > 10 µM |
| [O-][n+]1c2ccccc2[n+]([O-])c2c(O)cccc21 [Example 4a, 1-hydroxyphenazine 5,10-dioxide] |  |  |  |  |  | IC50 (Molm13 cells; [5]): 4.5 µM |
| CC(=O)Oc1cccc2c1[n+]([O-])c1cccc(O)c1[n+]2[O-] [Example 5d, 1-Acetoxy-6-hydroxyphenazine 5,10-dioxide] |  |  |  |  |  | IC50 (Molm13 cells; [4]): 5.61 µM; IC50 (Molm13 cells; [5]): 5.62 µM |
| CCOC(=O)COc1cccc2c1[n+]([O-])c1cc(C)c(C)cc1[n+]2[O-] [Example 6b, 1-(2-ethoxy-2-oxoethoxy)-7,8-dimethylphenazine 5,10-dioxide] | 6.3 ± 0.25 | 8.3 ± 0.78 | > 100 | 140 ± 2 | > 100 |  |
| CN1CCN(C(=O)Oc2cccc3c2[n+]([O-])c2cc(Br)c(Br)cc2[n+]3[O-])CC1 [Example 8g, 7,8-dibromo-1-((4-methylpiperazine-1-carbonyl)oxy)phenazine 5,10-dioxide] |  |  |  |  |  | EC50 ([2]; read-out: EC50 (μM) NRK 2% O2, 2% O2, 24 hours of incubation): 62 ± 1.3 µM; EC50 ([2]; read-out: EC50 (μM) NRK 19% O2, 19% O2, 24 hours of incubation): 49 ± 1.8 µM; EC50 [1, 11]: 0.7 ± 0.04 µM; EC50 [1, 12]: 0.89 ± 0.03 µM; EC50 ([3]; Rattus norvegicus, H9c2, 24 h): 64 ± 9.2 µM |
| O=C(Oc1cccc2c1[n+]([O-])c1cccc(O)c1[n+]2[O-])N1CCCC1 [Example 8j, 1-hydroxy-6-((pyrrolidine-1-carbonyl)oxy)phenazine 5,10-dioxide] |  |  |  |  |  | EC50 [2, 13]: 15 ± 1 µM; EC50 [2, 14]: 9.6 ± 0.38 µM; EC50 [1, 15]: 0.79 ± 0.09 µM; EC50 [1, 16]: 0.86 ± 0.05 µM; EC50 [3, 17]: 12 ± 0.7 µM |
| Cc1c(C)[n+](O)c2c(O)cccc2[n+]1[O-] [Example 12, 5-hydroxy-2,3-dimethylquinoxaline 1,4-dioxide] | > 200 | > 200 |  |  |  |  |
| Cc1c(C)[n+]([O-])c2c(OC(=O)N3CCN(C)CC3)cccc2[n+]1[O-] [Example 13, 2,3-dimethyl-5-((4-methylpiperazine-1-carbonyl)oxy)quinoxaline 1,4-dioxide] |  |  |  |  |  | EC50 [1, 15]: > 200 µM; EC50 [1, 16]: > 200 µM |
| O=C(Oc1cccc2c1[n+]([O-])c1cccc(OC(=O)N3CCCC3)c1[n+]2[O-])N1CCCC1 [Example 16a, 1,6-bis((pyrrolidine-1-carbonyl)oxy)phenazine 5,10-dioxide] |  |  |  |  |  | IC50 (Molm13 cells; MOLM-13, 24 h, read-out: Molm 13 IC50 20% O2): 0.95 µM |
| [O-][n+]1c2ccccc2[n+]([O-])c2c(O)cccc21 [Example 17, 1-hydroxyphenazine 5,10-dioxide] | 12 ± 0.04 | 11 ± 1.8 | > 100 | 79 ± 4.2 | > 100 |  |
| CC(C)(C)OC(=O)COc1cccc2c1[n+]([O-])c1ccccc1[n+]2O [Example 19, 1-(2-(tert-butoxy)-2-oxoethoxy)phenazine 5,10-dioxide] | 1.9 ± 0.11 | 2.2 ± 0.09 | 25 ± 1.9 | 26 ± 0.7 | 20 ± 2.1 |  |
| CCN(CC)C(=O)COc1cccc2c1[n+]([O-])c1ccccc1[n+]2[O-] [Example 21, 1-(2-(diethylamino)-2-oxoethoxy)phenazine 5,10-dioxide] | 1.4 ± 0.15 | 1.2 ± 0.08 | 16 ± 1 | 13 ± 0.01 | 23 ± 0.1 |  |
| O=C(Oc1cccc2c1[n+]([O-])c1ccccc1[n+]2[O-])N1CCCC1 [Example 24, 1-((pyrrolidine-1-carbonyl)oxy)phenazine 5,10-dioxide] |  |  |  |  |  | EC50 [2, 13]: 21 ± 2.4 µM; EC50 [2, 14]: 18 ± 0.6 µM; EC50 [1, 15]: 1.2 ± 0.15 µM; EC50 [1, 16]: 1.5 ± 0.18 µM; EC50 [3, 17]: 13 ± 0.5 µM |
| CC(C)(C)OC(=O)COc1cccc2c1[n+]([O-])c1cccc(OCC(=O)OC(C)(C)C)c1[n+]2[O-] [Example 36, 1,6-bis(2-(tert-butoxy)-2-oxoethoxy)phenazine 5,10-dioxide] | 3.3 ± 0.22 | 4.2 ± 0.2 | 27 ± 1.8 | 27 ± 1.2 |  |  |
| O=C(O)COc1cccc2c1[n+]([O-])c1cccc(OCC(=O)O)c1[n+]2[O-] [Example 37, 1,6-bis(carboxymethoxy)phenazine 5,10-dioxide] | 39 ± 9 | 18 ± 3 | > 200 | > 200 |  |  |
| Cc1cc2c(cc1C)[n+]([O-])c1c(O)cccc1[n+]2[O-] [Example 48, 1-hydroxy-7,8-dimethylphenazine 5,10-dioxide] | 2.3 ± 0.1 | 2.8 ± 0.25 | > 50 | > 50 | > 50 |  |
| [O-][n+]1c2ccccc2[n+]([O-])c2cc(O)ccc21 [Example 60, 2-hydroxyphenazine 5,10-dioxide] | 45 ± 3.5 | 128 ± 3 |  |  | > 200 |  |
| CCOC(=O)COc1ccc2c(c1)[n+](O)c1ccccc1[n+]2O [Example 62, 2-(2-ethoxy-2-oxoethoxy)phenazine 5,10-dioxide] | 15 ± 0.7 | 32 ± 5 |  |  | 45 ± 4.8 |  |
| CN1CCN(C(=O)Oc2ccc3c(c2)[n+](O)c2ccccc2[n+]3O)CC1 [Example 63, 2-((4-methylpiperazine-1-carbonyl)oxy)phenazine 5,10-dioxide] |  |  |  |  |  | EC50 [1, 11]: 3.5 ± 0.19 µM; EC50 [1, 12]: 14 ± 0.4 µM; EC50 ([3]; Rattus norvegicus, H9c2, 24 h): 53 ± 0.3 µM |
| Cc1cc2c(cc1C)[n+]([O-])c1cc(O)ccc1[n+]2[O-] [Example 64, 7-hydroxy-2,3-dimethylphenazine 5,10-dioxide] | 50 ± 3.8 | 117 ± 1 |  |  | > 200 |  |
| Cc1cc2c(cc1C)[n+](O)c1cc(OC(=O)N3CCN(C)CC3)ccc1[n+]2[O-] [Example 65, 2,3-dimethyl-7-((4-methylpiperazine-1-carbonyl)oxy)phenazine 5,10-dioxide] |  |  |  |  |  | EC50 [1, 11]: 2.5 ± 0.24 µM; EC50 [1, 12]: 17 µM; EC50 ([3]; Rattus norvegicus, H9c2, 24 h): 20 ± 2.4 µM |
| Nc1ccc2c(c1)[n+](O)c1ccccc1[n+]2[O-] [Example 67, 2-aminophenazine 5,10-dioxide] | 7.6 ± 0.89 | 31 ± 1.4 |  |  | 80 ± 8.9 |  |
| Cc1c(C)[n+]([O-])c2c(OC(=O)N3CCOCC3)cccc2[n+]1[O-] [Example 69, 2,3-dimethyl-5-((morpholine-4-carbonyl)oxy)quinoxaline 1,4-dioxide] |  |  |  |  |  | EC50 [1, 15]: > 200 µM; EC50 [1, 16]: > 200 µM |
